# Measured values from patent US20150293086A1, “LATERAL FLOW IMMUNOASSAY” (ABREOS BIOSCIENCES, INC., priority 2014, published 2015).
# System: rituximab binding mimetope peptide
# Assay: Peptide based ELISA: biotinylated mimetope peptides on streptavidin/neutravidin plates capture the antibody
# Conditions: biotinylated peptide on coated plate, peroxidase labeled secondary anti-Fc antibody
# Description: FIG. 2 (A) illustrates one embodiment of the lateral flow assay validating that rituximab binding mimetope peptide function in immunoassays and competes with the native antigen (CD20). FIG. 2 (A) is a standard curve for rituximab by peptide based ELISA. Biotinylated peptides are bound onto neutravidin coated ELISA plates. Rituximab is diluted in TBST. […] The solid line indicates the mean of the buffer control and the dashed line represents the mean +10 times the SD of the buffer control.
# To confirm that a synthetic peptide captures the antibody, ELISAs were performed. Peptides biotinylated at the C-terminus were coated onto streptavidin coated plates and then incubated with a dilution serious of antibody. Binding was detected via a peroxidase labeled secondary anti-Fc antibody. Specificity was confirmed by lack of signal from either total Ig or using a different antibody. […] The antibody was fluorescently labeled and the cell staining evaluated with or without a molar excess of the presumed mimetope as well as control peptides. […]
# FIG. 2 illustrates one embodiment of the lateral flow assay validating that rituximab binding mimetope peptide function in immunoassays and competes with the native antigen (CD20). […] Fluorescently labeled rituximab was incubated with primary CLL cells and evaluated by flow cytometry (solid line). […]
substance,measurement,value
rituximab: monoclonal antibody; native antigen CD20,sensitivity of peptide ELISA for the antibody,4 µg/mL
